molecular target: T1, vanilloid receptor (Rattus norvegicus, UniProt O35433); assay: 45Ca influx test (antagonist calcium uptake test) in rat DRG neurons stimulated with capsaicin; assay type: cell-based; conditions: DRG neuron; @0.3 μM; neonatal SD rat DRG neurons; capsaicin 0.5 μM; read-out: Antagonist Calcium Uptake Test, percent inhibition of capsaicin response
T1 construct: DRG nerve cells from the primary culture of 2 days were equilibrated; endogenous in cells; host or cells: primary culture of dorsal root ganglion neurons from neonatal SD rats
T1 sequence (O35433 whole entry): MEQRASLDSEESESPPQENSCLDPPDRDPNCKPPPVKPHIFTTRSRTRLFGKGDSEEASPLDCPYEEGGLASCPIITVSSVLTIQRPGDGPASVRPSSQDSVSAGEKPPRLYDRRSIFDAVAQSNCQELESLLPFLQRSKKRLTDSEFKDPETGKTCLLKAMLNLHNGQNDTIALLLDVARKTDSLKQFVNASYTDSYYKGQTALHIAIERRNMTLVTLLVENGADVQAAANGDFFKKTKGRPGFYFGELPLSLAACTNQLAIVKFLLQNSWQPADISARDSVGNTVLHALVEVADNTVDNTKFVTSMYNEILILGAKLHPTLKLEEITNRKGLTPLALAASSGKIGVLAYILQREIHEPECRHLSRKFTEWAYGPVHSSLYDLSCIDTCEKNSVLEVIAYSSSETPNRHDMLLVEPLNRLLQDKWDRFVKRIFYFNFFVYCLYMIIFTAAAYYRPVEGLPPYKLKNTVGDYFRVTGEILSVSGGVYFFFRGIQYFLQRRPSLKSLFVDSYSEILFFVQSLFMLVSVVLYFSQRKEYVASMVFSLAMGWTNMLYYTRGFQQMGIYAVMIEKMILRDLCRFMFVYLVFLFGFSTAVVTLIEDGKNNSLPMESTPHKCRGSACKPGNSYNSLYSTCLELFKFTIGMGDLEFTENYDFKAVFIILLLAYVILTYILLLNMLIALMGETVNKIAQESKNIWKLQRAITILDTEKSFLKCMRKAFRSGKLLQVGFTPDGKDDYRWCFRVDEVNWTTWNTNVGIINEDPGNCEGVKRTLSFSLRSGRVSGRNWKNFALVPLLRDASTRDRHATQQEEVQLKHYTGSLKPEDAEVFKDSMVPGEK
Protocol: 1) Separation of spinal dorsal root ganglia (DRG) in newborn rats and primary culture thereof
Neonatal (2-3 clay old or younger than 2-3 day old) SD rats were put in ice for 5 minutes to anesthetize and disinfected with 70% ethanol. DRG of all part of spinal cord were dissected (Wood et al., 1988, J. Neurosci. 8, pp 3208-3220) and collected in DME/F12 medium to which 1.2 g/l sodium bicarbonate and 50 mg/l gentamycin were added. The DRG were incubated sequentially at 37° C. for 30 mins in 200 U/ml collagenase and 2.5 mg/ml trypsin, separately. The ganglia were washed twice with DME/F12 medium supplemented with 10% horse serum, triturated through a fire-polished Pasteur pipette, filtered through Nitex 80 membrane to obtain single cell suspension and the suspension was washed once more. This was subjected to centrifugation, then resuspended in cell culture medium at certain level of cell density. As the cell culture medium, DME/F12 medium supplemented with 10% horse serum was diluted with identical medium conditioned by C6 glioma cells 2 clays on a confluent monolayer (1:1), and NGF (Nerve Growth Factor) was added to adjust 200 ng/ml as final concentration. After the cells were grown 2 days in medium where cytosine arabinoside (Ara-C, 100 μM) was added to kill dividing nonneuronal cells, medium was changed to one without Ara-C. The resuspended cells were plated at a density of 1500-2000 neurons/well onto Terasaki plates previously coated with 10 μg/ml poly-D-ornithine.
2) ^45Ca Influx Experiments
DRG nerve cells from the primary culture of 2 days were equilibrated by washing 4 times with HEPES (10 mM, pH 7.4)-buffered Ca^2+, Mg^2+-free HBSS (H-HBSS). The solution in each well was removed from the individual well. Medium containing the test compound plus capsaicin (final concentration 0.5 μM) and ^45Ca (final concentration 10 μCi/ml) in H-HBSS was added to each well and incubated at room temperature for 10 nuns. Terasaki plates were washed five times with H-HBSS and dried at room temperature. To each well, 0.3% SDS (10 μl) was added to elute ^45Ca. After the addition of scintillation cocktail of into each well, the amount of ^45Ca influx into neuron was measured by counting radioactivity. Antagonistic activities of test compounds against vanilloid receptor were calculated as percent of the inhibition of maximal response of capsaicin at a concentration of 0.5 μM.

SMILES | inhibition at 0.3 µM [%]
C=Cc1cc(CNC(=O)c2ccc(-c3cccc(C(F)(F)F)c3)o2)cc(F)c1NS(C)(=O)=O [Example 105, 5-(3-Trifluoromethyl-phenyl)-furan-2-carboxylic acid 3-fluoro-4-methanesulfonylamino-5-vinyl-benzylamide] | 96

same assay, conditions: DRG neuron; @3 μM; neonatal SD rat DRG neurons; capsaicin 0.5 μM; read-out: Antagonist Calcium Uptake Test, percent inhibition of capsaicin response

SMILES | inhibition at 3 µM [%]
Cc1cc(CNC(=O)c2ccc(-c3cccc(C(F)(F)F)c3)o2)cc(F)c1NS(C)(=O)=O [Example 103, 5-(3-Trifluoromethyl-phenyl)-furan-2-carboxylic acid 3-fluoro-4-methanesulfonylamino-5-methyl-benzylamide] | 84

same assay, conditions: DRG neuron; @10 μM; neonatal SD rat DRG neurons; capsaicin 0.5 μM; read-out: Antagonist Calcium Uptake Test, percent inhibition of capsaicin response

SMILES | inhibition at 10 µM [%]
CC(C)c1cccc(Oc2ccc(C(=O)N[C@H](C)c3cc(F)c(NS(C)(=O)=O)c(F)c3)s2)c1 [Example 21, 5-(3-Isopropyl-phenoxy)-thiophene-2-carboxylic acid [1-(3,5-difluoro-4-methanesulfonylamino-phenyl)-ethyl]-amide] | 56
C[C@@H](NC(=O)c1csc(Cc2cccc(C(F)(F)F)c2)n1)c1cc(F)c(NS(C)(=O)=O)c(F)c1 (stereo in doubt) [Example 20, 2-(3-Trifluoromethyl-benzyl)-thiazole-4-carboxylic acid [1-(3,5-difluoro-4-methanesulfonylamino-phenyl)-ethyl]-amide] | 67

same assay, conditions: neonatal SD rat DRG neurons; capsaicin 0.5 μM; 45Ca

SMILES | IC50 [nM]
C[C@@H](NC(=O)c1coc(Oc2cccc3c2CCC3C(F)(F)F)n1)c1cc(F)c(NS(C)(=O)=O)c(F)c1 (stereo in doubt) [Example 57, 2-(1-Trifluoromethyl-indan-4-yloxy)-oxazole-4-carboxylic acid [1-(3,5-difluoro-4-methanesulfonylamino-phenyl)-ethyl]-amide] | 330
CC(C)c1cc(Oc2nc(C(=O)N[C@H](C)c3cc(F)c(NS(C)(=O)=O)c(F)c3)co2)cc(C(F)(F)F)c1 [Example 40, 2-(3-Isopropyl-5-trifluoromethyl-phenoxy)-oxazole-4-carboxylic acid [1-(3,5-difluoro-4-methanesulfonylamino-phenyl)-ethyl]-amide] | 1100
C[C@@H](NC(=O)c1coc(-c2ccc(Cl)c(Cl)c2)n1)c1cc(F)c(NS(C)(=O)=O)c(F)c1 [Example 86, 2-(3,4-Dichloro-phenyl)-oxazole-4-carboxylic acid [1-(3,5-difluoro-4-methanesulfonylamino-phenyl)-ethyl]-amide] | 1000
C[C@@H](NC(=O)c1csc(-c2cc(C3CC3)cc(C3CC3)c2)n1)c1cc(F)c(NS(C)(=O)=O)c(F)c1 (stereo in doubt) [Example 107, 2-(3,5-Dicyclopropyl-phenyl)-thiazole-4-carboxylic acid [1-(3,5-difluoro-4-methanesulfonylamino-phenyl)-ethyl]-amide] | 3000
Cc1cc(CNC(=O)c2ccc(-c3cccc(C(F)(F)F)c3)o2)ccc1NS(C)(=O)=O [Example 112, 5-(3-Trifluoromethyl-phenyl)-furan-2-carboxylic acid 4-methanesulfonylamino-3-methyl-benzylamide] | 220
C[C@@H](NC(=O)c1coc(Oc2cccc(Cl)n2)n1)c1cc(F)c(NS(C)(=O)=O)c(F)c1 [Example 26] | > 10000
CCc1cccc(Oc2nc(C(=O)N[C@H](C)c3cc(F)c(NS(C)(=O)=O)c(F)c3)co2)c1 [Example 29, 2-(3-Ethyl-phenoxy)-oxazole-4-carboxylic acid [1-(3,5-difluoro-4-methanesulfonylamino-phenyl)-ethyl]-amide] | 280
CCOc1cccc(-c2ccc(C(=O)NCc3cc(F)c(NS(C)(=O)=O)c(F)c3)s2)c1 [Example 64, 5-(3-Ethoxy-phenyl)-thiophene-2-carboxylic acid 3,5-difluoro-4-methanesulfonylamino-benzylamide] | 4100
C[C@@H](NC(=O)c1coc(-c2cc(Cl)cc(Cl)c2)n1)c1cc(F)c(NS(C)(=O)=O)c(F)c1 [Example 83, 2-(3,5-Dichloro-phenyl)-oxazole-4-carboxylic acid [1-(3,5-difluoro-4-methanesulfonylamino-phenyl)-ethyl]-amide] | 880
CCN(CC)c1cccc(Oc2nc(C(=O)N[C@H](C)c3cc(F)c(NS(C)(=O)=O)c(F)c3)co2)c1 [Example 8, 2-(3-Diethylamino-phenoxy)-oxazole-4-carboxylic acid [1-(3,5-difluoro-4-methanesulfonylamino-phenyl)-ethyl]-amide] | 2700
C=C1CCc2c(Oc3nc(C(=O)N[C@H](C)c4cc(F)c(NS(C)(=O)=O)c(F)c4)co3)cccc21 [Example 28, 2-(1-Methylene-indan-4-yloxy)-oxazole-4-carboxylic acid [1-(3,5-difluoro-4-methanesulfonylamino-phenyl)-ethyl]-amide] | 820
C[C@@H](NC(=O)c1coc(-c2ccccc2Cl)n1)c1cc(F)c(NS(C)(=O)=O)c(F)c1 (stereo in doubt) [Example 84, 2-(2-Chloro-phenyl)-oxazole-4-carboxylic acid [1-(3,5-difluoro-4-methanesulfonylamino-phenyl)-ethyl]-amide] | 7400
CS(=O)(=O)Nc1c(F)cc(CNC(=O)c2ccc(-c3cccc(C(F)(F)F)c3)o2)cc1C#N [Example 121, 5-(3-Trifluoromethyl-phenyl)-furan-2-carboxylic acid 3-cyano-5-fluoro-4-methanesulfonylamino-benzylamide] | 330
C[C@@H](NC(=O)c1coc(NCC2CCCCC2)n1)c1cc(F)c(NS(C)(=O)=O)c(F)c1 [Example 13, 2-(Cyclohexylmethyl-amino)-oxazole-4-carboxylic acid [1-(3,5-difluoro-4-methanesulfonylamino-phenyl)-ethyl]-amide] | 1400
CS(=O)(=O)Nc1c(F)cc(CNC(=O)c2cc(-c3ccc(Br)cc3)oc2C(F)(F)F)cc1F [Example 61, 5-(4-Bromo-phenyl)-2-trifluoromethyl-furan-3-carboxylic acid 3,5-difluoro-4-methanesulfonylamino-benzylamide] | 2800
CSc1cccc(-c2nc(C(=O)N[C@H](C)c3cc(F)c(NS(C)(=O)=O)c(F)c3)co2)c1 [Example 98, 2-(3-Methylsulfanyl-phenyl)-oxazole-4-carboxylic acid [1-(3,5-difluoro-4-methanesulfonylamino-phenyl)-ethyl]-amide] | 1700
CC(C)c1cccc(Oc2nc(C(=O)NCc3cc(F)c(NS(C)(=O)=O)c(F)c3)co2)c1 [Example 9, 2-(3-Isopropyl-phenoxy)-oxazole-4-carboxylic acid 3,5-difluoro-4-methanesulfonylamino-benzylamide] | 440
CCCOc1cccc(-c2nc(C(=O)N[C@H](C)c3cc(F)c(NS(C)(=O)=O)c(F)c3)co2)c1 [Example 71, 2-(3-Propoxy-phenyl)-oxazole-4-carboxylic acid [1-(3,5-difluoro-4-methanesulfonylamino-phenyl)-ethyl]-amide] | 1200
CS(=O)(=O)Nc1ccc(CNC(=O)c2cnc(-c3ccc(C(F)(F)F)cc3)s2)cc1F [Example 122, 2-(4-Trifluoromethyl-phenyl)-thiazole-5-carboxylic acid 3-fluoro-4-methanesulfonylamino-benzylamide] | 8800
C[C@@H](NC(=O)c1coc(Oc2cccc3c2OC2(CCCC2)O3)n1)c1cc(F)c(NS(C)(=O)=O)c(F)c1 [Example 49, 2-(2,3-Dihydroxy-phenoxy)-oxazole-4-carboxylic acid [1-(3,5-difluoro-4-methanesulfonylamino-phenyl)-ethyl]-amide, cyclopentanone ketal] | 600
C[C@@H](NC(=O)c1ccc(-c2cc(C3CC3)cc(C3CC3)c2)o1)c1cc(F)c(NS(C)(=O)=O)c(F)c1 [Example 108, 5-(3,5-Dicyclopropyl-phenyl)-furan-2-carboxylic acid [1-(3,5-difluoro-4-methanesulfonylamino-phenyl)-ethyl]-amide] | 520
CS(=O)(=O)Nc1ccc(CNC(=O)c2ccc(-c3ccc(F)c(C(F)(F)F)c3)o2)cc1F [Example 125, 5-(4-Fluoro-3-trifluoromethyl-phenyl)-furan-2-carboxylic acid 3-fluoro-4-methanesulfonylamino-benzylamide] | 530
CC(C)(C)c1ccc(-c2ccc(C(=O)NCc3cc(F)c(NS(C)(=O)=O)c(F)c3)s2)cc1 [Example 63, 5-(4-tert-Butyl-phenyl)-thiophene-2-carboxylic acid 3,5-difluoro-4-methanesulfonylamino-benzylamide] | > 10000

Reference: patent US8691855B2, “Compounds, isomer thereof, or pharmaceutically acceptable salts thereof as vanilloid receptor antagonist and pharmaceutical compositions containing the same” (Amorepacific Corporation, priority 2008, dated 2014)
